Like-named read-outs stand apart in the source and are kept apart here.
Target: CFTR-mediated chloride transport in human intestinal epithelial enteroid cells (Homo sapiens, UniProt P13569)
Test: Membrane potential dye, Enteroid Assay A
Type: cell-based
Conditions: for EC50: read-out: Ent. A EC50
Method in brief: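 Membrane potential dye (20 μM methyl oxonol, with 30 μM CaCCinh-A01 and 30 μM Chicago Sky Blue) loaded 25 min at room temperature into ROCK-inhibitor-seeded human enteroid cells. Chloride-free stimulation buffer triggered transport, followed by 15 min fluorescence. % Activity relative to 3 μM/3 μM/300 nM triple-combination control.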

[1] = enteroid cells incubated with test compound 18-24 hours, acute 10 μM forskolin and 300 nM N-[2,4-bis(1,1-dimethylethyl)-5-hydroxyphenyl]-1,4-dihydro-4-oxoquinoline-3-carboxamide
[2] = percentage of chloride transport of triple combination control (3 μM N-[(6-amino-2-pyridyl)sulfonyl]-6-(3-fluoro-5-isobutoxy-phenyl)-2-[(4S)-2,2,4-trimethylpyrrolidin-1-yl]pyridine-3-carboxamide based)

CFTR-mediated chloride transport in human intestinal epithelial enteroid cells, sequence (P13569 with tags, fused parts or gaps DEL508-508): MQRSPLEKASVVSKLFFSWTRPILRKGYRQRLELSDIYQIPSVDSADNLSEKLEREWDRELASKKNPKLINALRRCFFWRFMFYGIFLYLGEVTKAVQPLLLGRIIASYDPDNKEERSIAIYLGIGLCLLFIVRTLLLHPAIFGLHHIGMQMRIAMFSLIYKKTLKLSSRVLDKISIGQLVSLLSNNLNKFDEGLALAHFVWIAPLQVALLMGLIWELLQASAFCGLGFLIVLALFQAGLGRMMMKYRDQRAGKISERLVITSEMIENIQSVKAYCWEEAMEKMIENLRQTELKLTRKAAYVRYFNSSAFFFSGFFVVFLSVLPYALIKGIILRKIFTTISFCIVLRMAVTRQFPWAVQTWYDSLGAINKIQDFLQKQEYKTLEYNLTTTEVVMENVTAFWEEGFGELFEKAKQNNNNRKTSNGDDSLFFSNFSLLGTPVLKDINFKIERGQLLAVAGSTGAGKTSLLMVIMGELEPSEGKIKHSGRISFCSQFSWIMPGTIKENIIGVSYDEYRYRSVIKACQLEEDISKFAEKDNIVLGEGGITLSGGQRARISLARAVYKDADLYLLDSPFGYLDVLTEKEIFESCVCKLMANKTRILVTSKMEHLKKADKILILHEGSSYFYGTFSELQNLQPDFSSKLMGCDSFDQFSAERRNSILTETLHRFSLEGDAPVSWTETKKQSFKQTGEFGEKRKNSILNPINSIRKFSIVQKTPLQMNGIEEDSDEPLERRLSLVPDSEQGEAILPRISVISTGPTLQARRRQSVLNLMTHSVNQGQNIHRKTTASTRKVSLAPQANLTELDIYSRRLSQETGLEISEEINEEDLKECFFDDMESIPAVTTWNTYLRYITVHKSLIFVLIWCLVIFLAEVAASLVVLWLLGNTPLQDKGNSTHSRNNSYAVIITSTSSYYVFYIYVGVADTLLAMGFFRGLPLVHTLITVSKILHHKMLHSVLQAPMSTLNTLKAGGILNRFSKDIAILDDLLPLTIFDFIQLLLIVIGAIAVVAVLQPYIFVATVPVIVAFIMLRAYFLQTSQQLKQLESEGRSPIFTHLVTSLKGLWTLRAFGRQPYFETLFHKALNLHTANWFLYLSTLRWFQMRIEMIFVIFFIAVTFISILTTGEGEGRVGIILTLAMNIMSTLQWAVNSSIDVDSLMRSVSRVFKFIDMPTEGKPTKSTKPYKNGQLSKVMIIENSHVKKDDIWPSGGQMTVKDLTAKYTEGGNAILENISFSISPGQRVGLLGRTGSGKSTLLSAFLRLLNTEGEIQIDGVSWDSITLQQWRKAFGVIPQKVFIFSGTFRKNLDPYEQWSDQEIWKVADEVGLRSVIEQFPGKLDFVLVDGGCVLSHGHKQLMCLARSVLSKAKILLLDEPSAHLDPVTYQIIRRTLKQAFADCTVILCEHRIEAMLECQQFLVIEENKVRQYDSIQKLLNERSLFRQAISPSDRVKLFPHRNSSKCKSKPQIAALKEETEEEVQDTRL

Row | SMILES | EC50 [1] [nM] | Ent. A Max Activity (%) [2] | Ent. A Max Activity (%) (Enteroid Assay A) | EC50 (Enteroid Assay A) [nM]
1 | Cc1cccc(C)c1-c1cc2nc(n1)NS(=O)(=O)c1cccc(c1)C(=O)N1CCN(C(=O)N3CCCCC3)C[C@@H]1CO2 [Compound 258] | 3000 to 30000 | ++ (++ is 30-60%) | – | –
2 | Cc1cccc(C)c1-c1cc2nc(n1)NS(=O)(=O)c1cccc(c1)C(=O)N1C[C@H](CC(C)C)NC[C@H](C1)O2 [Compound 108, (16R,19S)-12-(2,6-Dimethylphenyl)-19-(2-methylpropyl)-15-oxa-8λ^6-thia-1,9,11,18,22-pentaazatetracyclo[14.4.1.13,7.110,14]tricosa-3(23),4,6,10(22),11,13-hexaene-2,8,8-trione] | – | – | +++ (+++ is >600%) | < 1000
3 | Cc1cccc(C)c1-c1cc2nc(n1)NS(=O)(=O)c1cccc(c1)C(=O)N1CC(CC(c3ccccc3)C1)O2 (single isomer, unassigned) [Compound 223, 18-(2,6-dimethylphenyl)-5-phenyl-2-oxa-14λ^6-thia-7,15,17,20-tetraazatetracyclo[14.3.1.13,7.19,13]docosa-1(19),9(21),10,12,16(20),17-hexaene-8,14,14-trione] | < 1000 | ++ (++ is 30-60%) | – | –
4 | Cc1cccc(C)c1-c1cc2nc(n1)NS(=N)(=O)c1cccc(c1)C(=O)N1CCN(CCC(C)(C)C)CC(C1)O2 (stereo not drawn) [Compound 247] | – | – | + (+ is <30%) | 1000 to 3000
5 | Cc1cccc(C)c1-c1cc2nc(n1)NS(=O)(=O)c1cccc(c1)C(=O)N1C[C@@H](CN(C)C[C@@H]1CCC(C)C)O2 [Compound 131, (16R,20S)-12-(2,6-Dimethylphenyl)-18-methyl-20-(3-methylbutyl)-15-oxa-8λ^6-thia-1,9,11,18,22-pentaazatetracyclo[14.4.1.13,7.110,14]tricosa-3(23),4,6,10(22),11,13-hexaene-2,8,8-trione] | – | – | ++ (++ is 30-60%) | < 1000
6 | Cc1cccc(C)c1-c1cc2nc(n1)NS(=O)(=O)c1cccc(c1)C(=O)N1CCN(C(=O)OC(C)(C)C)C(CO2)C1 (stereo not drawn) [Compound 322] | < 1000 | ++ (++ is 30-60%) | – | –
7 | Cc1cccc(C)c1-c1cc2nc(n1)NS(=O)(=O)c1cccc(c1)C(=O)N1CCN(Cc3ccccc3)C(CO2)C1 (stereo not drawn) [Compound 178, 18-Benzyl-12-(2,6-dimethylphenyl)-15-oxa-8λ^6-thia-1,9,11,18,22-pentaazatetracyclo[15.3.1.13,7.110,14]tricosa-3,5,7(23),10(22),11,13-hexaene-2,8,8-trione] | < 1000 | ++ (++ is 30-60%) | – | –
8 | Cc1cccc(C)c1-c1cc2nc(n1)NS(=O)(=O)c1cccc(c1)C(=O)N1CC(C)(C)OCC1CO2 (stereo not drawn) [Compound 254] | 1000 to 3000 | ++ (++ is 30-60%) | – | –
9 | Cc1cccc(C)c1-c1cc2nc(n1)NS(=O)(=O)c1cccc(c1)C(=O)N1Cc3cc(C(C)(C)C)ccc3C(C1)O2 (stereo not drawn) [Compound 182, 20-tert-Butyl-12-(2,6-dimethylphenyl)-15-oxa-8λ^6-thia-1,9,11,25-tetraazapentacyclo[14.7.1.13,7.110,14.017,22]hexacosa-3,5,7(26),10,12,14(25),17,19,21-nonaene-2,8,8-trione] | – | – | + (+ is <30%) | –
10 | Cc1cccc(C)c1-c1cc2nc(n1)NS(=O)(=O)c1cccc(c1)C(=O)N1C[C@@H](CN(C)C[C@H]1CC(C)C)O2 [Compound 103, (16R,20R)-12-(2,6-Dimethylphenyl)-18-methyl-20-(2-methylpropyl)-15-oxa-8λ^6-thia-1,9,11,18,22-pentaazatetracyclo[14.4.1.13,7.110,14]tricosa-3(23),4,6,10(22),11,13-hexaene-2,8,8-trione] | – | – | +++ (+++ is >600%) | < 1000
11 | Cc1cccc(C)c1-c1cc2nc(n1)NS(=O)(=O)c1cccc(c1)C(=O)N1CCN(CC3(C)CCOCC3)C[C@H](C1)O2 [Compound 14] | – | – | +++ (+++ is >600%) | < 1000
12 | Cc1cccc(C)c1-c1cc2nc(n1)NS(=O)(=O)c1cccc(c1)C(=O)N1Cc3ccccc3[C@@H](C1)O2 [Compound 318] | – | + (+ is <300%) | – | –
13 | Cc1cccc(C)c1-c1cc2nc(n1)NS(=O)(=O)c1cccc(c1)C(=O)N1CCN([C@@H](C)C(C)(C)C)C[C@H](C1)O2 (single isomer, unassigned) [Compound 73] | – | – | +++ (+++ is >600%) | < 1000
14 | Cc1cccc(C)c1-c1cc2nc(n1)NS(=O)(=O)c1cccc(c1)C(=O)N1C[C@@H](CN(C3CC4(CCCC4)C3)C[C@@H]1C(C)C)O2 [Compound 147] | – | – | +++ (+++ is >600%) | < 1000
15 | Cc1cccc(C)c1-c1cc2nc(n1)NS(=O)(=O)c1cccc(c1)C(=O)N1CC(O2)C2CCCN(C)C2C1 (single isomer, unassigned) [Compound 201, 12-(2,6-Dimethylphenyl)-21-methyl-15-oxa-8λ^6-thia-1,9,11,21,25-pentaazapentacyclo[14.7.1.13,7.110,14.017,22]hexacosa-3,5,7(26),10(25),11,13-hexaene-2,8,8-trione] | – | – | ++ (++ is 30-60%) | 3000 to 30000
16 | Cc1cccc(C)c1-c1cc2nc(n1)NS(=O)(=O)c1cccc(c1)C(=O)N1CC(C)(C)CC1CO2 (stereo not drawn) [Compound 368] | 1000 to 3000 | ++ (++ is 30-60%) | – | –

Row | SMILES | EC50 [1] [nM] | Ent. A Max Activity (%) [2] | Ent. A Max Activity (%) (Enteroid Assay A) | EC50 (Enteroid Assay A) [nM]
17 | Cc1cccc(C)c1-c1cc2nc(n1)NS(=O)(=O)c1cccc(c1)C(=O)N1CCN(C3CCC(F)(F)CC3)CC(C1)O2 (stereo not drawn) [Compound 46] | – | – | +++ (+++ is >600%) | < 1000
18 | Cc1cccc(C)c1-c1cc2nc(n1)NS(=O)(=O)c1cccc(c1)C(=O)N1CCN(Cc3ccc[nH]c3=O)C[C@@H]1CO2 [Compound 277] | – | + (+ is <300%) | – | –
19 | Cc1cccc(C)c1-c1cc2nc(n1)NS(=O)(=O)c1cccc(c1)C(=O)N1CCN(C(=O)CCN3CCCC3)C(CO2)C1 (stereo not drawn) [Compound 303] | – | + (+ is <300%) | – | –
20 | Cc1cccc(C)c1-c1cc2nc(n1)NS(=O)(=O)c1cccc(c1)C(=O)N1Cc3cc(C(C)(C)C)ccc3[C@H](O2)[C@H]1CC(C)C [Compound 184, (16S,24R)-20-tert-Butyl-12-(2,6-dimethylphenyl)-24-(2-methylpropyl)-15-oxa-8λ^6-thia-1,9,11,25-tetraazapentacyclo[14.7.1.13,7.110,14.017,22]hexacosa-3,5,7(26),10,12,14(25),17,19,21-nonaene-2,8,8-trione] | – | – | +++ (+++ is >600%) | < 1000
21 | Cc1cccc(C)c1-c1cc2nc(n1)NS(=O)(=O)c1cccc(c1)C(=O)N1CCN(Cc3c[nH]cn3)C[C@@H]1CO2 [Compound 284] | – | + (+ is <300%) | – | –
22 | Cc1cccc(C)c1-c1cc2nc(n1)NS(=O)(=O)c1cccc(c1)C(=O)N1C[C@@H](CNC[C@H]1CC(C)C)O2 [Compound 101, (16R,20R)-12-(2,6-Dimethylphenyl)-20-(2-methylpropyl)-15-oxa-8λ^6-thia-1,9,11,18,22-pentaazatetracyclo[14.4.1.13,7.110,14]tricosa-3(23),4,6,10,12,14(22)-hexaene-2,8,8-trione] | – | – | ++ (++ is 30-60%) | < 1000
23 | Cc1cccc(C)c1-c1cc2nc(n1)NS(=O)(=O)c1cccc(c1)C(=O)N1CCN(CCC(C)(C)C)CC(C1)O2 (stereo not drawn) [Compound 45] | < 1000 | +++ (+++ is >60%) | – | –
24 | Cc1cccc(C)c1-c1cc2nc(n1)NS(=O)(=O)c1cccc(c1)C(=O)N1Cc3ccccc3[C@@H](O2)[C@H]1CC(C)C (stereo in doubt) [Compound 332] | < 1000 | +++ (+++ is >60%) | – | –
25 | Cc1cccc(C)c1-c1cc2nc(n1)NS(=O)(=O)c1cccc(c1)C(=O)N1CCCN(Cc3ccccc3)CC(C1)O2 (stereo not drawn) [Compound 205, 18-Benzyl-12-(2,6-dimethylphenyl)-15-oxa-8λ^6-thia-1,9,11,18,23-pentaazatetracyclo[14.5.1.13,7.110,14]tetracosa-3,5,7(24),10,12,14(23)-hexaene-2,8,8-trione] | – | – | ++ (++ is 30-60%) | < 1000
26 | Cc1cccc(C)c1-c1cc2nc(n1)NS(=O)(=O)c1cccc(c1)C(=O)N1CCN(CCC(C)(C)C)CC1CO2 (stereo not drawn) [Compound 310] | < 1000 | ++ (++ is 30-60%) | – | –
27 | Cc1cccc(C)c1-c1cc2nc(n1)NS(=O)(=O)c1cccc(c1)C(=O)N1CCN(CC3CCOCC3)CC1CO2 (stereo not drawn) [Compound 312] | 1000 to 3000 | ++ (++ is 30-60%) | – | –
28 | Cc1cccc(C)c1-c1cc2nc(n1)NS(=O)(=O)c1cccc(c1)C(=O)N1CCN(CCCCO)C[C@H](C1)O2 [Compound 33] | – | – | +++ (+++ is >600%) | 3000 to 30000
29 | Cc1cccc(C)c1-c1cc2nc(n1)NS(=O)(=O)c1cccc(c1)C(=O)N1CCN(CCCC(C)(C)C)CC(C1)O2 (stereo not drawn) [Compound 65, 18-(4,4-Dimethylpentyl)-12-(2,6-dimethylphenyl)-15-oxa-8λ^6-thia-1,9,11,18,22-pentaazatetracyclo[14.4.1.13,7.110,14]tricosa-3(23),4,6,10(22),11,13-hexaene-2,8,8-trione] | < 1000 | ++ (++ is 30-60%) | – | –
30 | Cc1cccc(C)c1-c1cc2nc(n1)NS(=O)(=O)c1cccc(c1)C(=O)N1CCNC[C@H](C1)O2 [Compound 2, (16R)-12-(2,6-Dimethylphenyl)-15-oxa-8λ^6-thia-1,9,11,18,22-pentaazatetracyclo[14.4.1.13,7.110,14]tricosa-3,5,7(23),10,12,14(22)-hexaene-2,8,8-trione] | 3000 to 30000 | +++ (+++ is >60%) | – | –
31 | Cc1cccc(C)c1-c1cc2nc(n1)NS(=O)(=O)c1cccc(c1)C(=O)N1C[C@@H](CN(CCC(C)(C)C)C[C@@H]1CC(C)C)O2 [Compound 153] | – | – | ++ (++ is 30-60%) | < 1000

— patent publication US20240018161A1, “MODULATORS OF CYSTIC FIBROSIS TRANSMEMBRANE CONDUCTANCE REGULATOR” (VERTEX PHARMACEUTICALS INCORPORATED, priority 2020, published 2024)
